One data set has as its system Canidae. Conditions: chronic; duration: 1 years; oral; M/F; Dog Other; histopathology: nonneoplastic.
The next data set relates to Colinus virginianus. The note with it: reproduction developmental.
In another data set the test system is Tagia sp. The note with it: acute; duration: 14 days; mortality.
A further data set deals with Coturnix japonica. Conditions: acute, oral, mortality.
The test system of another data set is Apis mellifera. Conditions: acute; duration: 48 hours; oral; unspecified; mortality.
The next data set concerns Oncorhynchus mykiss. Conditions: acute; duration: 96 hours; mortality.
The test system of another data set is Daphnia magna. The note with it: chronic/long-term; duration: 21 days; reproduction.
The subject of another data set is Typhlodromus pyri. Conditions: acute.

In brackets after ≈: the same amount, converted by molar mass. Some results are limits rather than exact numbers.

In the case of `c1coc(-c2nc3ccccc3[nH]2)c1` [Fuberidazole], the NOAEL with Canidae turned out to be 0.72 mg/kg-day; in the data set with Rattus norvegicus (developmental, development), 8 mg/kg-day; in the data set on Rattus norvegicus (reproduction developmental, mortality), 4 mg/kg-day. In addition, the NOEC in the data set on Colinus virginianus was above 76.9 mg/kg-day; in the data set on Daphnia magna, 0.12 mg/L. Further, the LC50 was above 1000 mg/kg with Tagia sp., above 930 mg/kg-day in the data set on Coturnix japonica (diet) and 0.91 µg/mL (≈ 4.94 µM) in the data set with Oncorhynchus mykiss. The LD50 with Rattus norvegicus (acute, mortality) is above 300 mg/kg; with Coturnix japonica, above 750 mg/kg; in the data set with Apis mellifera, above 187 µg/piece. Moreover, the LEL in the data set with Typhlodromus pyri (duration: 7 days, mortality) was found to be 26 g/ha; with Typhlodromus pyri (duration: 14 days, reproduction), 26 g/ha.

As usually defined, the NOAEL is the highest dose or exposure tested at which no adverse effect was seen.

For the origin of these results see EPA's ToxValDB 9.5 (doi:10.2903/j.efsa.2008.118r).
